Here are results for 24 compounds from BindingDB's records for doi:10.1016/j.bmcl.2014.06.076 (Genentech, 2014).

For this assay, the target named is L-lactate dehydrogenase A chain (Homo sapiens, UniProt P00338). In words: Inhibition of human recombinant carboxy-terminal His-tagged LDHA by UV endpoint assay.

`N#Cc1ccccc1SC1=C(O)CC(c2c(Cl)cccc2Cl)CC1=O` (centres undefined): the IC50 (usually the concentration that inhibits the measured activity by half) was > 100 µM.

Turning to `N#Cc1ccccc1SC1=C(O)CC(c2c(Cl)cccc2Br)CC1=O` (centres undefined), the IC50 is > 100 µM.

As for `O=C1CC(c2ccccc2Cl)CC(O)=C1Sc1ccccc1Cl` (centres undefined), the IC50 is > 100 µM.

On to `O=C1CC(c2cccc(Cl)c2)CC(O)=C1Sc1ccccc1Cl` (centres undefined), for which the IC50 was > 100 µM.

`O=C1CC(c2ccc(Cl)cc2)CC(O)=C1Sc1ccccc1Cl` (centres undefined): the IC50 is > 100 µM.

As for `COc1ccc(C2CC(=O)C(Sc3ccccc3Cl)=C(O)C2)cc1` (centres undefined), the IC50 was > 100 µM.

Regarding `O=C1CC(c2c(F)cccc2Cl)CC(O)=C1Sc1ccccc1Cl` (centres undefined), the IC50 is > 100 µM.

On to `O=C1CC(c2c(Cl)cccc2Br)CC(O)=C1Sc1ccccc1Cl` (centres undefined), for which the IC50 was > 100 µM.

Consider `O=C1CC(c2c(Cl)cccc2C(F)(F)F)CC(O)=C1Sc1ccccc1Cl` (centres undefined), for which the IC50 is > 100 µM.

Turning to `O=C1CC(c2c(F)cccc2F)CC(O)=C1Sc1ccccc1Cl` (centres undefined), the IC50 is > 100 µM.

With `Cc1cc(C)c(SC2=C(O)CC(c3ccccc3)CC2=O)nc1C#N` (centres undefined), the half-inhibitory concentration (IC50) was determined as 5.6 µM.

Turning to `O=C1CC(c2ccccc2)CC(O)=C1Sc1ncc[nH]1` (centres undefined), the IC50 came out at 0.87 µM.

Take `CSc1nnc(SC2=C(O)CC(c3ccccc3)CC2=O)s1` (centres undefined): the IC50 worked out at 7.4 µM.

Take `Cc1ccc2nc(SC3=C(O)CC(c4ccccc4)CC3=O)[nH]c2c1` (centres undefined): the IC50 turned out to be 2.1 µM.

Take `O=C1CC(c2c(Cl)ccc(Br)c2Cl)CC(O)=C1Sc1ccccc1Cl` (centres undefined): the IC50 is > 100 µM.

Turning to `O=C1CC(c2c(Br)cccc2Br)CC(O)=C1Sc1ccccc1Cl` (centres undefined), the concentration for half-maximal inhibition (IC50) is > 100 µM.

As for `Cc1cccc(C)c1C1CC(=O)C(Sc2ccccc2Cl)=C(O)C1` (centres undefined), the concentration for half-maximal inhibition (IC50) is > 100 µM.

Turning to `O=C1CC(c2c(C(F)(F)F)cccc2C(F)(F)F)CC(O)=C1Sc1ccccc1Cl` (centres undefined), the IC50 is > 100 µM.

On to `N#Cc1ccccc1SC1=C(O)CC(c2ccccc2Cl)CC1=O` (centres undefined), for which the concentration for half-maximal inhibition (IC50) is > 100 µM.

Consider `N#Cc1ccccc1SC1=C(O)CC(c2cccc(Cl)c2)CC1=O` (centres undefined), for which the IC50 is > 100 µM.

Consider `N#Cc1ccccc1SC1=C(O)CC(c2ccc(Cl)cc2)CC1=O` (centres undefined), for which the IC50 was > 100 µM.

Consider `N#Cc1ccccc1SC1=C(O)CC(c2c(Cl)cccc2C(F)(F)F)CC1=O` (centres undefined), for which the IC50 was > 100 µM.

Consider `Cc1cccc(C)c1C1CC(=O)C(Sc2ccccc2C#N)=C(O)C1` (centres undefined), for which the IC50 was > 100 µM.

In the case of `N#Cc1ccccc1SC1=C(O)CC(c2c(Br)cccc2Br)CC1=O` (centres undefined), the IC50 was > 100 µM.
